Data from patent EP0908457B1, “3-(1,2-benzisothiazol- and isoxazol-5-Y1)-2,4(1H,3H)-pyrimidinedione or thione and 3-(1,2-benzisothiazol- and isoxazol-5-y1)-4(3H)-pyrimidinone or thione herbicidal agents” (BASF AKTIENGESELLSCHAFT, priority 1997, dated 1999).

How the values were obtained:
[1] = system: Cyperus serotinus, Rottb.; assay: Preemergence weed control under flooded paddy conditions, CYPSE (Flatsedge); assay type: in vivo; further: meaning of each grade not given here
Sagittaria pygmaea, L. = assay: Preemergence weed control under flooded paddy conditions, SAGPY (Arrowhead (Pygmaea)); assay type: in vivo; settings: flooded paddy; further: meaning of each grade not given here
[2] = system: Monochoria vaginalis, Presl.; assay: Preemergence weed control under flooded paddy conditions, MOOVA (Monochoria); assay type: in vivo; settings: flooded paddy; further: meaning of each grade not given here
[3] = system: Oryza sativa, (L.) Tebonnet; assay: Rice tolerance to post-transplant applications under flooded paddy conditions (Example 187), ORYSAT (Rice, Tebonnet); on herbicidal effect rating ORYSAT: meaning of each grade not given here
[4] = system: Echinochloa oryzoides (Ard.) Fritsch.; assay: Preemergence weed control under flooded paddy conditions, ECHORC (Watergrass (Calif.)); assay type: in vivo; settings: flooded paddy; further: meaning of each grade not given here
Cyperus iria = assay: Preemergence weed control under flooded paddy conditions, CYPIR (Rice Flatsedge); assay type: in vivo; settings: flooded paddy; further: meaning of each grade not given here
[5] = 0.0313 kg/ha, preemergence weeds, rated three to four weeks after treatment
[6] = 0.0625 kg/ha, preemergence weeds, rated three to four weeks after treatment
[7] = 0.1250 kg/ha, preemergence weeds, rated three to four weeks after treatment
[8] = 0.2500 kg/ha, preemergence weeds, rated three to four weeks after treatment
[9] = Rate 0.0320 kg/ha, preemergence, rated 3-4 weeks after treatment
[10] = Rate 0.0620 kg/ha, preemergence, rated 3-4 weeks after treatment
[11] = Rate 0.1250 kg/ha, preemergence, rated 3-4 weeks after treatment
[12] = Rate 0.2500 kg/ha, preemergence, rated 3-4 weeks after treatment
[13] = Rate 0.0320 kg/ha, rated 3-4 weeks after treatment
[14] = Rate 0.0620 kg/ha, rated 3-4 weeks after treatment
[15] = Rate 0.1250 kg/ha, rated 3-4 weeks after treatment
[16] = Rate 0.2500 kg/ha, rated 3-4 weeks after treatment
[17] = Rate 0.0320 kg/ha, preemergence weeds, rated three to four weeks after treatment
[18] = Rate 0.0620 kg/ha, preemergence weeds, rated three to four weeks after treatment
[19] = Rate 0.1250 kg/ha, preemergence weeds, rated three to four weeks after treatment
[20] = Rate 0.2500 kg/ha, preemergence weeds, rated three to four weeks after treatment
[21] = Rate 0.0320 kg/ha, rated three to four weeks after treatment
[22] = Rate 0.0620 kg/ha, rated three to four weeks after treatment
[23] = Rate 0.1250 kg/ha, rated three to four weeks after treatment
[24] = Rate 0.2500 kg/ha, rated three to four weeks after treatment

Cn1c(C(F)(F)F)cc(=O)n(-c2ccc3snc(NS(C)(=O)=O)c3c2)c1=O [Example 117, N-{5-[3,6-Dihydro-3-methyl-2,6-dioxo-4-(trifluoromethyl)-1(2H)-pyrimidinyl]-1,2-benzisothiazol-3-yl}methanesulfonamide]
0.0: herbicidal effect rating, CYPSE [1, 5] | herbicidal effect rating, CYPSE [1, 6] | herbicidal effect rating, CYPSE [1, 7] | herbicidal effect rating, CYPSE [1, 8] | herbicidal effect rating, SAGPY (Sagittaria pygmaea, L.; [5]) | herbicidal effect rating, SAGPY (Sagittaria pygmaea, L.; [6]) | herbicidal effect rating, SAGPY (Sagittaria pygmaea, L.; [7]) | herbicidal effect rating, SAGPY (Sagittaria pygmaea, L.; [8]) | herbicidal effect rating, MOOVA [2, 5] | herbicidal effect rating, MOOVA [2, 6] | herbicidal effect rating, ORYSAT (rice tolerance) ([3]; 0.0313 kg/ha, rated three to four weeks after treatment) | herbicidal effect rating, ORYSAT (rice tolerance) ([3]; 0.0625 kg/ha, rated three to four weeks after treatment) | herbicidal effect rating, ORYSAT (rice tolerance) ([3]; 0.1250 kg/ha, rated three to four weeks after treatment) | herbicidal effect rating, ORYSAT (rice tolerance) ([3]; 0.2500 kg/ha, rated three to four weeks after treatment) | herbicidal effect rating, ECHORC [4, 5] | herbicidal effect rating, ECHORC [4, 6] | herbicidal effect rating, ECHORC [4, 7] | herbicidal effect rating, ECHORC [4, 8] | herbicidal effect rating, CYPIR (Cyperus iria; [5]) | herbicidal effect rating, CYPIR (Cyperus iria; [6]) | herbicidal effect rating, CYPIR (Cyperus iria; [7]) | herbicidal effect rating, CYPIR (Cyperus iria; [8])
4.0: herbicidal effect rating, MOOVA [2, 8]
2.0: herbicidal effect rating, MOOVA [2, 7]

COCCCOCCCOC(=O)COc1ccc(C)cc1-c1nsc2ccc(-n3c(=O)cc(C(F)(F)F)n(C)c3=O)cc12 [Example 536, Acetic acid, {{2-{5-[3,6-dihydro-3-methyl-2,6-dioxo-4-(trifluoromethyl)-1(2H)-pyrimidinyl]-1,2-benzisothiazol-3-yl}-p-tolyl}oxy}-, 3-(3-methoxypropoxy)propyl ester]
3.0: herbicidal effect rating, ECHORC [4, 9]
0.0: herbicidal effect rating, CYPSE [1, 9] | herbicidal effect rating, CYPSE [1, 10] | herbicidal effect rating, CYPSE [1, 11] | herbicidal effect rating, CYPSE [1, 12] | herbicidal effect rating, SAGPY (Sagittaria pygmaea, L.; [9]) | herbicidal effect rating, SAGPY (Sagittaria pygmaea, L.; [10]) | herbicidal effect rating, SAGPY (Sagittaria pygmaea, L.; [11]) | herbicidal effect rating, SAGPY (Sagittaria pygmaea, L.; [12]) | herbicidal effect rating ORYSAT [3, 13] | herbicidal effect rating ORYSAT [3, 14] | herbicidal effect rating, CYPIR (Cyperus iria; [9]) | herbicidal effect rating, CYPIR (Cyperus iria; [10]) | herbicidal effect rating, CYPIR (Cyperus iria; [11])
5.0: herbicidal effect rating, ECHORC [4, 11]
4.0: herbicidal effect rating ORYSAT [3, 16] | herbicidal effect rating, ECHORC [4, 10] | herbicidal effect rating, CYPIR (Cyperus iria; [12])
9.0: herbicidal effect rating, MOOVA [2, 9] | herbicidal effect rating, MOOVA [2, 10] | herbicidal effect rating, MOOVA [2, 11] | herbicidal effect rating, MOOVA [2, 12] | herbicidal effect rating, ECHORC [4, 12]
1.0: herbicidal effect rating ORYSAT [3, 15]

CN(C)C(=O)c1nsc2ccc(-n3c(=O)cc(C(F)(F)F)n(C)c3=O)cc12 [Example 329, 1,2-Benzisothiazole-3-carboxamide, 5-[3,6-dihydro-3-methyl-2,6-dioxo-4-(trifluoromethyl)-1(2H)-pyrimidinyl]-N,N-dimethyl-]
0.0: herbicidal effect rating, CYPSE [1, 17] | herbicidal effect rating, CYPSE [1, 18] | herbicidal effect rating, CYPSE [1, 19] | herbicidal effect rating, CYPSE [1, 20] | herbicidal effect rating, CYPIR (Cyperus iria; [17]) | herbicidal effect rating, CYPIR (Cyperus iria; [18]) | herbicidal effect rating, CYPIR (Cyperus iria; [19]) | herbicidal effect rating, CYPIR (Cyperus iria; [20])
9.0: herbicidal effect rating, MOOVA [2, 17] | herbicidal effect rating, MOOVA [2, 18] | herbicidal effect rating, MOOVA [2, 19] | herbicidal effect rating, MOOVA [2, 20]
2.0: herbicidal effect rating, ECHORC [4, 17]
3.0: herbicidal effect rating, SAGPY (Sagittaria pygmaea, L.; [17]) | herbicidal effect rating ORYSAT [3, 21] | herbicidal effect rating ORYSAT [3, 22] | herbicidal effect rating ORYSAT [3, 23] | herbicidal effect rating ORYSAT [3, 24] | herbicidal effect rating, ECHORC [4, 18] | herbicidal effect rating, ECHORC [4, 19] | herbicidal effect rating, ECHORC [4, 20]
4.0: herbicidal effect rating, SAGPY (Sagittaria pygmaea, L.; [18]) | herbicidal effect rating, SAGPY (Sagittaria pygmaea, L.; [19]) | herbicidal effect rating, SAGPY (Sagittaria pygmaea, L.; [20])

Cn1c(C(F)(F)F)cc(=O)n(-c2ccc3snc(C(=O)NS(C)(=O)=O)c3c2)c1=O [Example 323, 1,2-Benzisothiazole-3-carboxamide, 5-[3,6-dihydro-3-methyl-2,6-dioxo-4-(trifluoromethyl)-1(2H)-pyrimidinyl]-N-(methylsulfonyl)-]
9.0: herbicidal effect rating, SAGPY (Sagittaria pygmaea, L.; [20]) | herbicidal effect rating, MOOVA [2, 18] | herbicidal effect rating, MOOVA [2, 19] | herbicidal effect rating, MOOVA [2, 20]
3.5: herbicidal effect rating, SAGPY (Sagittaria pygmaea, L.; [18]) | herbicidal effect rating, SAGPY (Sagittaria pygmaea, L.; [19]) | herbicidal effect rating ORYSAT [3, 21] | herbicidal effect rating, CYPIR (Cyperus iria; [17])
0.0: herbicidal effect rating, SAGPY (Sagittaria pygmaea, L.; [17])
5.0: herbicidal effect rating, CYPSE [1, 17] | herbicidal effect rating ORYSAT [3, 22]
4.5: herbicidal effect rating, ECHORC [4, 17] | herbicidal effect rating, CYPIR (Cyperus iria; [18])
8.0: herbicidal effect rating, MOOVA [2, 17] | herbicidal effect rating, ECHORC [4, 19] | herbicidal effect rating, ECHORC [4, 20] | herbicidal effect rating, CYPIR (Cyperus iria; [19]) | herbicidal effect rating, CYPIR (Cyperus iria; [20])
6.5: herbicidal effect rating, CYPSE [1, 19] | herbicidal effect rating, ECHORC [4, 18]
6.0: herbicidal effect rating, CYPSE [1, 18] | herbicidal effect rating ORYSAT [3, 23]
7.5: herbicidal effect rating, CYPSE [1, 20] | herbicidal effect rating ORYSAT [3, 24]

CONC(=O)COc1ccc(C)cc1-c1nsc2ccc(-n3c(=O)cc(C(F)(F)F)n(C)c3=O)cc12 [Example 316, Acetamide, 2-{{2-{5-[3,6-dihydro-3-methyl-2,6-dioxo-4-(trifluoromethyl)-1(2H)-pyrimidinyl]-1,2-benzisothiazol-3-yl}-p-tolyl}oxy}-N-methoxy-]
8.5: herbicidal effect rating, CYPIR (Cyperus iria; [17])
1.0: herbicidal effect rating, CYPSE [1, 17] | herbicidal effect rating, SAGPY (Sagittaria pygmaea, L.; [19])
0.0: herbicidal effect rating, CYPSE [1, 20] | herbicidal effect rating, SAGPY (Sagittaria pygmaea, L.; [17])
4.5: herbicidal effect rating, CYPSE [1, 18] | herbicidal effect rating, CYPSE [1, 19] | herbicidal effect rating ORYSAT [3, 21] | herbicidal effect rating ORYSAT [3, 23]
5.5: herbicidal effect rating, ECHORC [4, 17]
7.5: herbicidal effect rating, CYPIR (Cyperus iria; [18]) | herbicidal effect rating, CYPIR (Cyperus iria; [19])
3.0: herbicidal effect rating, SAGPY (Sagittaria pygmaea, L.; [18]) | herbicidal effect rating, SAGPY (Sagittaria pygmaea, L.; [20])
8.0: herbicidal effect rating, MOOVA [2, 17]
6.0: herbicidal effect rating, CYPIR (Cyperus iria; [20])
4.0: herbicidal effect rating ORYSAT [3, 22] | herbicidal effect rating ORYSAT [3, 24]
9.0: herbicidal effect rating, MOOVA [2, 18] | herbicidal effect rating, MOOVA [2, 19] | herbicidal effect rating, MOOVA [2, 20] | herbicidal effect rating, ECHORC [4, 18] | herbicidal effect rating, ECHORC [4, 19] | herbicidal effect rating, ECHORC [4, 20]

C=CC(CCCC)OC(=O)COc1ccc(C)cc1-c1nsc2ccc(-n3c(=O)cc(C(F)(F)F)n(C)c3=O)cc12 (stereo not drawn) [Example 520, Acetic acid, {{2-{5-[3,6-dihydro-3-methyl-2,6-dioxo-4-(trifluoromethyl)-1(2H)-pyrimidinyl]-1,2-benzisothiazol-3-yl}-p-tolyl}oxy}-, 1-vinylpentyl ester]
0.0: herbicidal effect rating, CYPSE [1, 9] | herbicidal effect rating, CYPSE [1, 10] | herbicidal effect rating, CYPSE [1, 11] | herbicidal effect rating, CYPSE [1, 12] | herbicidal effect rating, SAGPY (Sagittaria pygmaea, L.; [9]) | herbicidal effect rating, SAGPY (Sagittaria pygmaea, L.; [10]) | herbicidal effect rating, SAGPY (Sagittaria pygmaea, L.; [11]) | herbicidal effect rating, SAGPY (Sagittaria pygmaea, L.; [12]) | herbicidal effect rating, CYPIR (Cyperus iria; [9]) | herbicidal effect rating, CYPIR (Cyperus iria; [10])
8.0: herbicidal effect rating, ECHORC [4, 10]
9.0: herbicidal effect rating, MOOVA [2, 9] | herbicidal effect rating, MOOVA [2, 10] | herbicidal effect rating, MOOVA [2, 11] | herbicidal effect rating, MOOVA [2, 12] | herbicidal effect rating, ECHORC [4, 12]
3.0: herbicidal effect rating ORYSAT [3, 16]
4.5: herbicidal effect rating ORYSAT [3, 15]
6.5: herbicidal effect rating, ECHORC [4, 9]
2.0: herbicidal effect rating ORYSAT [3, 13] | herbicidal effect rating, CYPIR (Cyperus iria; [11])
8.5: herbicidal effect rating, ECHORC [4, 11]
3.5: herbicidal effect rating ORYSAT [3, 14]
4.0: herbicidal effect rating, CYPIR (Cyperus iria; [12])
